# Values of other authors, collected in article PMC12309854, “Evidencing the role of a conserved polar signaling channel in the activation mechanism of the μ-opioid receptor” (Computational and Structural Biotechnology Journal, 2025).
# Target: MOP
# Parameters: method as in PMID 31527522
# Conditions: value given in the method for the Cheng-Prusoff calculation, source not stated; protocol ref 58; read-out: Kd of the radioligand
# Protocol: Binding assays were carried out following a previously published protocol, at 25 °C for a duration of 60 min using a 50 mM Tris–HCl buffer (pH 7.4) in glass tubes. […] Non-specific binding was evaluated u ...
substance,measurement,value
DAMGO [[^3H]DAMGO],Kd,0.5 nM
